Values of other authors in patent publication US20040067267A1, “Process for preparation of cholesterol lowering compositions from garlic” (priority 2002, published 2004).

Key:
HMG CoA reductase = biological target: T1, HMG CoA reductase (Homo sapiens, UniProt P04035); conditions: for lowering of plasma LDL cholesterol levels: alone; for decrease of LDL levels: given along with bile acid binding resin (Bilheimer et al 1983)
T1 sequence (P04035 1-888): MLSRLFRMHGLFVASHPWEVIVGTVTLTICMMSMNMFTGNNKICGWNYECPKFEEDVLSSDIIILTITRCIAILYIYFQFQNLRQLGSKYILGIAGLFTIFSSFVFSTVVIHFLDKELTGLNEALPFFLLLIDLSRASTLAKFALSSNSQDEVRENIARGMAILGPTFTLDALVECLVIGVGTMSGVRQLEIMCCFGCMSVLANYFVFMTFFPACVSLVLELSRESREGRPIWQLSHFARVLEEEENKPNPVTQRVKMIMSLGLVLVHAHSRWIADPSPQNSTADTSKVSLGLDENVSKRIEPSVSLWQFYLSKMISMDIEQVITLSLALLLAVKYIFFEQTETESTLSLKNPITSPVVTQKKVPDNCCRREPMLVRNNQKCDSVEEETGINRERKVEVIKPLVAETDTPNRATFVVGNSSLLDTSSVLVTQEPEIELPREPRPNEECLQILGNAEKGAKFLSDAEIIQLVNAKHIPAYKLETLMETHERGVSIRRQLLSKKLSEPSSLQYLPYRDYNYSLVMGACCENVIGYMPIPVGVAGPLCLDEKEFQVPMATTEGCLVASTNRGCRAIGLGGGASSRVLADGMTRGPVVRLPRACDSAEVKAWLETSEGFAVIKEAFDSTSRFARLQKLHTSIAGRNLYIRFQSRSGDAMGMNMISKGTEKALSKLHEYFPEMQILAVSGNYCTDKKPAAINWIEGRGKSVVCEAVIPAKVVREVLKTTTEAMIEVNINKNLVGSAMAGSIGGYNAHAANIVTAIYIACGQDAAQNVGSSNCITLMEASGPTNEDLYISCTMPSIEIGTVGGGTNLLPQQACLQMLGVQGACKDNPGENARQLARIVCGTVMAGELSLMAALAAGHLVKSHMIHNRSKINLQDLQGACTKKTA

[1] = patients with primary hypercholesterolemia (Hoeg et al. 1984)

| Molecule | lowering of plasma LDL cholesterol levels (HMG CoA reductase) [%] | decrease of LDL levels (HMG CoA reductase) [%] | reduction of LDL cholesterol [1] | oral LD 50, female (mice) [mg/kg b.wt] | oral LD 50, male (mice) [mg/kg b.wt] |
| --- | --- | --- | --- | --- | --- |
| mevinolin | 30 | 50 | – | – | – |
| NC[C@@H]1O[C@H](O[C@H]2[C@@H](O)[C@H](O[C@@H]3[C@@H](O)[C@H](N)C[C@H](N)[C@H]3O[C@H]3O[C@H](CN)[C@@H](O)[C@H](O)[C@H]3N)O[C@@H]2CO)[C@H](N)[C@@H](O)[C@@H]1O [Neomycin] | – | – | 15-20% | – | – |
| C=CCSSCC=C [diallyldisulfide] | – | – | – | 130 | 145 |
| C=CCSC[C@H](N)C(=O)O [s-allyl-L-cysteine] | – | – | – | 9390 | 8890 |
| CC[C@H](C)C(=O)O[C@H]1CCC=C2C=C[C@H](C)[C@H](CC[C@@H]3C[C@@H](O)CC(=O)O3)[C@H]21 [Compaction] | 30 | 50 | – | – | – |
| C=CCSCC=C [diallyl sulfide] | – | – | – | 1805 | 2029 |
| C=CCS[S+]([O-])CC=C (stereo not shown) [allicin] | – | – | – | 363 | 309 |
